In patent US20100298280A1, “Compounds for the Modulation of Huntingtin Aggregation, Methods and Means for Identifying Such Compounds” (priority 2007, published 2010):
“Also recorded” adds a separate entry of the source.

How the values were obtained:
[1] = molecular target: T1, mutant huntingtin aggregates (HDex1Q68 fused to ECFP/EYFP) (Homo sapiens, UniProt P42858, INS38QQQQQQQQQQQQQQQQQQQQQQQQQQQQQQQQQQQQQQQQQQQQQQQ); experiment: Cellular FRET aggregation assay in stable Tet-off CHO-AA8/Q68-Q68 cells; assay type: cell-based; details: for apparent inhibitory effects due to toxic effects (concentration): FRET decrease attributed to toxicity
T1 sequence (P42858 1-88, stated change not applied): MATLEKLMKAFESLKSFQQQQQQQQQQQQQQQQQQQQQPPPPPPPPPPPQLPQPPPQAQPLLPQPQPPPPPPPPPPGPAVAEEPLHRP
Procedure: To determine the potential of possibly inhibiting substances the inventors performed dose response assays at concentrations ranging from 1, to 100 μM.
Screening was performed in 96-well plates (greiner bio-one) containing 1×10^4 cells/well of the stably inducible tet off cell lines htt-mut (six-fold) and CHO-AA8 line (three fold) for background control. Simultaneously, each compound was checked for its potential autofluorescence.
Two stable inducible CHO Tet off cell lines were constructed expressing simultaneously wildtype (CHO-AA8/Q17-Q17) or mutant (CHO-AA8/Q68-Q68) huntingtin fragments fused to ECFP or EYFP (FIG. 1B) after withdrawal of doxicycline (dox). Basal and induced expression levels of huntingtin fusion proteins were examined by Western blot analysis at different time intervals (4, 24, 48, and 72 hours). […] For the screening approach stable inducible huntingtin expressing cell lines were seeded in 96-well plates and the fluorescence intensities were measured with a fluorescence plate reader.
The test compounds were mixed in a fresh doxicycline-free medium with 2% DMSO and added to the Tet off cell lines two to three hours after seeding and attachment of the cells.
(§1) The FRET-measurement was performed 48 h later.
Subsequently, a second screening round was performed at concentration range 1, 3, and 10 μM, respectively.

CHO-AA8/Q68-Q68 cells = experiment: Propidium iodide exclusion assay (viability, cell number) following the FRET assay; details: after 48 h; for Viability ↓ (concentration) / Viability (effect in words): propidium iodide exclusion
Procedure: CHO-AA8/Q68-Q68, CHO-AA8/Q17-Q17 and CHO-AA8 cells were seeded in 96 well plates. After attachment of the cells, the medium was exchanged for Ham's F 12 medium containing 10% doxicycline free FBS and 2% DMSO supplemented with compounds. After 48 h the fluorescence intensities of cells were measured using a fluorescence plate reader (Fluoroscan Ascent, Thermo Scietific) and filtersets for CFP (ex 444 nm, em 485 nm), YFP(ex 485 nm, em 538 nm) and FRET (ex 444 nm, em 538 nm). After correction of background fluorescence (subtraction of CHO-AA8 cell fluorescence intensities) the FRET signal was determined using the method: FA=(FRET-a*YFP)/CFP with a=0.11 (Zal u. Gascoigne 2004, Zal et al. 2002). In following, the viability of cells was measured using a propidium iodide exclusion assay (Sattler et al. 1997). PI was added to the cells at final concentration of 0.15 mg/ml. After 15 minutes the PI fluorescence intensity was measured (ex 530 nm, em 620 nm). The cells were then lysed with 0.5% Triton X-100 (TX100) and the PI fluorescence intensity was measured again. Viability of cells was calculated as viability=1−(PIbefore TX100/PIafter TX100).
as §1

[2] = tested on: mutant huntingtin aggregates; experiment: Filter retardation assay on lysates of treated cells (immunodetection); assay type: cell-based; details: increasing concentrations
Procedure: (C) Immunodetection of mutant huntingtin aggregates upon PGL-135 treatment of cells using a filter retardation assay.
The filter retardation assay was accomplished as described (Scherzinger et al., 1999). Cells were lysed (100 mM NaCl, 5 mM MgCl2, 0.5% NP-40, 1 mM EDTA, 50 mM Tris-HCl, protease inhibitors, 25 U/mL benzonase, pH 8.8), denatured 5 min at 95° C. with 2% SDS/50 mM DTT and cell lysates equal 2 μg protein were filtered through a 0.2 μm cellulose acetate membrane (Schleicher & Schuell) using a dot blot unit. The immunodetection was performed using the same antibody detection system as described above. Quantitative determination of the relative aggregate amount was evaluated with the Lumi Imager F1 System and Lumi Analyst 3.0 (Boehringer Mannheim, Germany).
The coherence between decreasing FRET values and less polyglutamine aggregates in PGL-135 treated cells was further validated by fluorescence microscopy imaging (data not shown) and a filter retardation assay (Heiser et al., 2000) (FIG. 2C).

[3] = molecular target: T2, GST-tagged mutant htt-exon-1 with 51 polyglutamines (GST-HDexQ51) (Homo sapiens, UniProt P42858, INS38QQQQQQQQQQQQQQQQQQQQQQQQQQQQQQ); experiment: Cell free filter retardation assay; assay type: biochemical; details: tested 1-200 μM
T2 construct: GST-tagged mutant htt-exon-1 with 51 polyglutamines (GST-HDexQ51); GST (N, cleaved yes)
T2 sequence (P42858 with tags, fused parts or gaps with the stated changes): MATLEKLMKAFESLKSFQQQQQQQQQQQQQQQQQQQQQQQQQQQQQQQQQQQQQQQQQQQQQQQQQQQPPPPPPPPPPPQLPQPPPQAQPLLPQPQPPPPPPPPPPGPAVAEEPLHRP
Procedure: To determine if the cellular environment is a prerequisite for the inhibitory effect of the isolated natural compounds or if the compounds directly interfere with the aggregation process, the inventors performed a cell free filter retardation assay (Scherzinger et al., 1997).
Briefly, GST-tagged mutant htt-exon-1 with 51 polyglutamines (GST-HDexQ51) is incubated with the compounds and factor Xa to remove the GST tag for proper aggregation (16 h, 23° C.). The aggregated peptides are denaturized by boiling in SDS buffer (10 min, 99° C.) and filtered though a cellulose acetate membrane. The insoluble aggregates are retained at the membrane and detected with an anti-huntingtin antibody.
The isolated natural compounds, PGL-135 and congo red were tested in a concentration range of 1-200 μM. […] (Data not shown). Concentration of less than 50 μM congo red produced an enhancement of the aggregation process.

[4] = molecular target: T1, mutant huntingtin aggregates (HDex1Q68 fused to ECFP/EYFP); experiment: Cellular FRET aggregation assay in stable Tet-off CHO-AA8/Q68-Q68 cells; assay type: cell-based; details: half-maximal inhibition of FRET signal, dose response 0.7-50 μM

| Compound | Cell number ↓ (concentration) (CHO-AA8/Q68-Q68 cells) | FRET-signal (effect in words) ([1]; 48 h, 2% DMSO) | Cell number (effect in words) (CHO-AA8/Q68-Q68 cells) | Viability (effect in words) (CHO-AA8/Q68-Q68 cells) | also measured |
| --- | --- | --- | --- | --- | --- |
| C=CCNC1=C2C[C@@H](C)C[C@H](OC)[C@H](O)[C@@H](C)/C=C(\C)[C@H](OC(N)=O)[C@@H](OC)/C=C\C=C(/C)C(=O)NC(=CC1=O)C2=O [17-AAG] | ↓ ≧0.3 μM |  |  |  | FRET-signal ↓ (concentration from which aggregation is reduced) ([1]; 48 h, 2% DMSO): ↓ ≧0.3 μM; apparent inhibitory effects due to toxic effects (concentration) [1]: > 0.7 µM; Viability ↓ (concentration) (CHO-AA8/Q68-Q68 cells): ↓ ≧0.3 μM |
| CN(CC(=O)O)C(=N)N [Creatine] |  | no effect | no effect | no effect | FRET-signal (effect in words) ([1]; 48 h, 2% DMSO, listed as creatin): no effects |
| NCCSSCCN [Cystamine] |  | no effect | no effect | no effect | FRET-signal (effect in words) ([1]; 48 h, 2% DMSO, listed as cystamine dihydrochloride): no effects |
| O=C(O)Cc1ccccc1Nc1c(Cl)cccc1Cl [Diclofenac] | ↓ ≧250 nM | no effect |  | no effect | FRET-signal (effect in words) ([1]; 48 h, 2% DMSO, listed as diclofenac): no effects |
| COc1ccc2c(c1)c(CC(=O)O)c(C)n2C(=O)c1ccc(Cl)cc1 [Indomethacin] | ↓ ≧1.25 μM |  |  |  | FRET-signal ↓ (concentration from which aggregation is reduced) ([1]; 48 h, 2% DMSO): ↓ ≧1.25 μM; Viability ↓ (concentration) (CHO-AA8/Q68-Q68 cells): ↓ 10 μM |
| CC(Cc1ccc(O)c(O)c1)C(C)Cc1ccc(O)c(O)c1 (stereo not shown) [NDGA] | ↓ 500 nM | no effect |  | no effect |  |
| Cc1cc(O)c(C)c2sc(N)nc12 [PGL-135] |  | decrease | no effect | not affected; also recorded: without affecting the cell viability; also recorded: no effect | mutant huntingtin aggregates in filter retardation assay [2]: significant decrease; inhibition of aggregate formation (in words) [3]: Only congo red reliably inhibited the formation of aggregates |
| Nc1nc2ccc(OC(F)(F)F)cc2s1 [Riluzole] |  |  | no effect | no effect |  |
| C=C1[C@@H]2CC[C@@]3(C)[C@H](c4ccoc4)OC(=O)C[C@]13O[C@H]1CC(=O)C(C)(C)[C@H](CC(=O)OC)[C@]12C [S2, angolensic acid methylester] |  |  |  |  | EC50 [4]: 3000 nM |
| O=C(CCCCCN1C(=O)c2cccc3cccc(c23)C1=O)NO [Scriptaid] | ↓ ≧25 μM |  | decreased |  | FRET-signal ↑ (concentration from which aggregation is increased) ([1]; 48 h, 2% DMSO): ↑ ≧25 μM; Viability ↓ (concentration) (CHO-AA8/Q68-Q68 cells): ↓ ≧25 μM |
| OC[C@H]1O[C@H](O[C@H]2O[C@H](CO)[C@@H](O)[C@H](O)[C@H]2O)[C@H](O)[C@@H](O)[C@@H]1O [Trehalose] |  | no effect | no effect | no effect | FRET-signal (effect in words) ([1]; 48 h, 2% DMSO, listed as threhalose): no effects |
| C[C@@H](N)[C@H]1CC[C@H](C(=O)Nc2ccncc2)CC1 [Y-27632] |  | no effect | no effect | no effect | apparent inhibitory effects due to toxic effects (concentration) [1]: > 12.5 µM |
| O=C(O)c1cc(/N=N/c2ccc(-c3ccc(/N=N/c4ccc(O)c(C(=O)O)c4)cc3)cc2)ccc1O [chrysamine G] |  | no effect | no effect | no effect | FRET-signal (effect in words) ([1]; 48 h, 2% DMSO, listed as Chrysamine G): no effects |
| COC1=C(OC)C(=O)C(C/C=C(\C)CC/C=C(\C)CC/C=C(\C)CC/C=C(\C)CC/C=C(\C)CC/C=C(\C)CC/C=C(\C)CC/C=C(\C)CC/C=C(\C)CCC=C(C)C)=C(C)C1=O [coenzyme Q10] |  | no effect | no effect | no effect |  |
| Nc1c(/N=N/c2ccc(-c3ccc(/N=N/c4cc(S(=O)(=O)O)c5ccccc5c4N)cc3)cc2)cc(S(=O)(=O)O)c2ccccc12 [congo red] | ↓ ≧125 μM |  |  | no effect | FRET-signal ↓ (concentration from which aggregation is reduced) ([1]; 48 h, 2% DMSO): ↓ ≧30 μM; FRET-signal ↓ (concentration from which aggregation is reduced) ([1]; 48 h, 2% DMSO, listed as Congo red): > 30 µM; enhancement of the aggregation process (concentration) ([3]; 16 h, 23° C.): less than 50 μM; inhibited the formation of aggregates (concentration) ([3]; 16 h, 23° C.): > 50 µM |
| COC1=C2C[C@@H](C)C[C@H](OC)[C@H](O)[C@@H](C)/C=C(\C)[C@H](OC(N)=O)[C@@H](OC)/C=C\C=C(/C)C(=O)NC(=CC1=O)C2=O [geldanamycin] |  |  | no effect | no effect |  |
| O=C([O-])c1ccccc1O.[Na+] [sodiumsalicylat] |  | no effect |  | no effect | FRET-signal (effect in words) ([1]; 48 h, 2% DMSO, listed as sodiumsalyicylate): no effects |
| half-Chrysamine G |  | no effect | no effect | no effect | FRET-signal ↓ (concentration from which aggregation is reduced) ([1]; 48 h, 2% DMSO): > 2.5 µM |
